According to patent US8236801B2, “2-aza-bicyclo[2.2.1]heptane derivatives” (Actelion Pharmaceuticals Ltd., priority 2008, dated 2012):
Where two headings read alike, the source gives them in different places.

What was measured:
human orexin-1 receptor = target: T1, human orexin-1 receptor (Homo sapiens, UniProt O43613); assay: FLIPR calcium assay, antagonism of orexin-A in CHO cells expressing the human orexin-1 receptor; type: cell-based; conditions: read-out: OX1 IC50
T1 construct: expressed in transfected cells; host or cells: Chinese hamster ovary (CHO) cells, G418 selection
T1 sequence (O43613 1-425): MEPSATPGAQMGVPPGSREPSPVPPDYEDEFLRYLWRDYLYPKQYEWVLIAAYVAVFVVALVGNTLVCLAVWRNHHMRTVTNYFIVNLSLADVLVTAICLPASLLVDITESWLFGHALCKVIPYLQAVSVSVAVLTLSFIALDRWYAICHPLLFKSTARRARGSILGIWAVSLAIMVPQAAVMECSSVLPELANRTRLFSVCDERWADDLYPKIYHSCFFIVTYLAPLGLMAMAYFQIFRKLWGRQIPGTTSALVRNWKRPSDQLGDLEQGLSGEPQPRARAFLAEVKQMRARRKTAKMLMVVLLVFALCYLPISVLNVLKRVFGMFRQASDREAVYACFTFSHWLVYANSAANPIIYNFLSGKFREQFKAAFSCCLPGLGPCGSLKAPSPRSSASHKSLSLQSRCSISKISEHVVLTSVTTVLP
Method: (§1) Chinese hamster ovary (CHO) cells expressing the human orexin-1 receptor and the human orexin-2 receptor, respectively, are grown in culture medium (Ham F-12 with L-Glutamine) containing 300 μg/ml G418, 100 U/ml penicillin, 100 μg/ml streptomycin and 10% heat inactivated fetal calf serum (FCS). The cells are seeded at 20′000 cells/well into 384-well black clear bottom sterile plates (Greiner). The seeded plates are incubated overnight at 37° C. in 5% CO2. Human orexin-A as an agonist is prepared as 1 mM stock solution in MeOH:water (1:1), diluted in HBSS containing 0.1% bovine serum albumin (BSA), NaHCO3: 0.375 g/l and 20 mM HEPES for use in the assay at a final concentration of 3 nM. Antagonists are prepared as 10 mM stock solution in DMSO, then diluted in 384-well plates, first in DMSO, then in HBSS containing 0.1% bovine serum albumin (BSA), NaHCO3: 0.375 g/l and 20 mM HEPES. On the day of the assay, 50 μl of staining buffer (HBSS containing 1% FCS, 20 mM HEPES, NaHCO3: 0.375 g/l, 5 mM probenecid (Sigma) and 3 μM of the fluorescent calcium indicator fluo-4 AM (1 mM stock solution in DMSO, containing 10% pluronic) is added to each well. The 384-well cell-plates are incubated for 50 min at 37° C. in 5% CO2 followed by equilibration at rt for 30-120 min before measurement. Within the Fluorescent Imaging Plate Reader (FLIPR2 or FLIPR Tetra, Molecular Devices), antagonists are added to the plate in a volume of 10 μl/well, incubated for 10 min and finally 10 μl/well of agonist is added. Fluorescence is measured for each well at 1 second intervals, and the height of each fluorescence peak is compared to the height of the fluorescence peak induced by 3 nM orexin-A with vehicle in place of antagonist. For each antagonist, the IC50 value (the concentration of compound needed to inhibit 50% of the agonistic response) is determined. Optimized conditions may be achieved by adjustment of pipetting speed and cell splitting regime. The calculated IC50 values of the compounds may fluctuate depending on the daily cellular assay performance. Fluctuations of this kind are known to those skilled in the art.

human orexin-2 receptor = target: T2, human orexin-2 receptor (Homo sapiens, UniProt O43614); assay: FLIPR calcium assay, antagonism of orexin-A in CHO cells expressing the human orexin-2 receptor; type: cell-based; conditions: read-out: OX2 IC50
T2 construct: expressed in transfected cells; host or cells: Chinese hamster ovary (CHO) cells, G418 selection
T2 sequence (O43614 1-444): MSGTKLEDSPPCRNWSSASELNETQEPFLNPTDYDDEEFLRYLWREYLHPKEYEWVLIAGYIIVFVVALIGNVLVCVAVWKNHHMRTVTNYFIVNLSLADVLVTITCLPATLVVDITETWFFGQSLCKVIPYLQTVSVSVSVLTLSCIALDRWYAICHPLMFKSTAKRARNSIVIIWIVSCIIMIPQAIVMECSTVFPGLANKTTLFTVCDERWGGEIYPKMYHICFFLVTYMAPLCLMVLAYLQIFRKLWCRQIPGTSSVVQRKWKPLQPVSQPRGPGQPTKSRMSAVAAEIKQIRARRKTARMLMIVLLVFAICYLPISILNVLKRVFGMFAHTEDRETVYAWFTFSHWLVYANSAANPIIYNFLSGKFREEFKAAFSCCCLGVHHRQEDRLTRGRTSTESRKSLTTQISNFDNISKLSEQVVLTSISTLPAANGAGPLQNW
Method: as §1

[1] = measured with FLIPR 2, 3 nM orexin-A, CHO cells
[2] = measured with FLIPR Tetra (marked *), 3 nM orexin-A, CHO cells
[3] = measured with FLIPR Tetra (marked *), geometric mean from n = 2 values

Row | SMILES | IC50 (human orexin-1 receptor; [2]) | IC50 (human orexin-2 receptor; [2]) | other results
1 | Cc1ncc(C(=O)N2[C@@H]3CC[C@@H](C3)[C@H]2CNC(=O)c2cccc3occc23)c(-c2ccccc2)n1 [Example 11, Benzofuran-4-carboxylic acid [(1R,3S,4S)-2-(2-methyl-4-phenyl-pyrimidine-5-carbonyl)-2-aza-bicyclo[2.2.1]hept-3-ylmethyl]-amide] | – | – | IC50 (human orexin-1 receptor; [1]): 75 nM; IC50 (human orexin-2 receptor; [1]): 2140 nM
2 | CCN(C)c1nc(C(=O)N2[C@H]3CC[C@H](C3)[C@@H]2CNC(=O)c2cccc3ncsc23)c(-c2ccc(F)cc2)s1 [Example 118, Benzothiazole-7-carboxylic acid {(1S,3R,4R)-2-[2-(ethyl-methyl-amino)-5-(4-fluoro-phenyl)-thiazole-4-carbonyl]-2-aza-bicyclo[2.2.1]hept-3-ylmethyl}-amide] | 117 nM | 32 nM | –
3 | CCn1nc(C)cc1C(=O)NC[C@@H]1[C@H]2CC[C@H](C2)N1C(=O)c1ccccc1-c1ccccc1 [Example 40, 2-Ethyl-5-methyl-2H-pyrazole-3-carboxylic acid [(1R,3S,4S)-2-(biphenyl-2-carbonyl)-2-aza-bicyclo[2.2.1]hept-3-ylmethyl]-amide] | – | – | IC50 (human orexin-1 receptor; [1]): > 10000 nM; IC50 (human orexin-2 receptor; [1]): 441 nM
4 | Cc1nc(C(=O)N2[C@@H]3CC[C@@H](C3)[C@H]2CNc2ncc(Br)cn2)c(-c2ccccc2)s1 [Example 46, {(1R,3S,4S)-3-[(5-Bromo-pyrimidin-2-ylamino)-methyl]-2-aza-bicyclo[2.2.1]hept-2-yl}-(2-methyl-5-phenyl-thiazol-4-yl)-methanone] | 488 nM | 364 nM | –
5 | Cc1nc(C(=O)N2[C@@H]3CC[C@@H](C3)[C@H]2CNC(=O)c2cccc3cccnc23)c(-c2cccc(Cl)c2)s1 [Example 1, Quinoline-8-carboxylic acid {(1R,3S,4S)-2-[5-(3-chloro-phenyl)-2-methyl-thiazole-4-carbonyl]-2-aza-bicyclo[2.2.1]hept-3-ylmethyl}-amide] | – | – | IC50 (human orexin-1 receptor; [1]): 59 nM; IC50 (human orexin-2 receptor; [1]): 622 nM
6 | O=C(NC[C@@H]1[C@H]2CC[C@H](C2)N1C(=O)c1sccc1-c1ccc2c(c1)OCO2)c1cccc2ncsc12 [Example 94, Benzothiazole-7-carboxylic acid [(1R,3S,4S)-2-(3-benzo[1,3]dioxol-5-yl-thiophene-2-carbonyl)-2-aza-bicyclo[2.2.1]hept-3-ylmethyl]-amide] | 1270 nM | 81 nM | –
7 | COc1nc(C(=O)N2[C@@H]3CC[C@@H](C3)[C@H]2CNC(=O)c2cccc3ncsc23)c(-c2cccc(Cl)c2)s1 [Example 80, Benzothiazole-7-carboxylic acid {(R,S,S)-2-[5-(3-chloro-phenyl)-2-methoxy-thiazole-4-carbonyl]-2-aza-bicyclo[2.2.1]hept-3-ylmethyl}-amide] | 80 nM | 15 nM | –
8 | O=C(NC[C@@H]1[C@H]2CC[C@H](C2)N1C(=O)c1nccnc1-c1ccc2cc[nH]c2c1)c1cccc2ncsc12 [Example 109, Benzothiazole-7-carboxylic acid {(1R,3S,4S)-2-[3-(1H-indol-6-yl)-pyrazine-2-carbonyl]-2-aza-bicyclo[2.2.1]hept-3-ylmethyl}-amide] | 707 nM | 19 nM | –
9 | Nc1nc(C(=O)N2[C@@H]3CC[C@@H](C3)[C@H]2CNC(=O)c2cccc3c2OCCO3)c(-c2cccc(F)c2)s1 [Example 5, 2,3-Dihydro-benzo[1,4]dioxine-5-carboxylic acid {(1R,3S,4S)-2-[2-amino-5-(3-fluoro-phenyl)-thiazole-4-carbonyl]-2-aza-bicyclo[2.2.1]hept-3-ylmethyl}-amide] | – | – | IC50 (human orexin-1 receptor; [1]): 149 nM; IC50 (human orexin-2 receptor; [1]): 29 nM
10 | Cc1nc2c(C(=O)NC[C@@H]3[C@H]4CC[C@H](C4)N3C(=O)c3nc(N(C)C)sc3-c3cccc(F)c3)cccc2o1 [Example 79, 2-Methyl-benzooxazole-4-carboxylic acid {(1R,3S,4S)-2-[2-dimethylamino-5-(3-fluoro-phenyl)-thiazole-4-carbonyl]-2-aza-bicyclo[2.2.1]hept-3-ylmethyl}-amide] | – | – | IC50 (human orexin-1 receptor; [3]): 64 nM; IC50 (human orexin-2 receptor; [3]): 71 nM
11 | CN(C)c1nc(C(=O)N2[C@@H]3CC[C@@H](C3)[C@H]2CNC(=O)c2nsc3ccccc23)c(-c2cccc(F)c2)s1 [Example 105, Benzo[d]isothiazole-3-carboxylic acid {(1R,3S,4S)-2-[2-dimethylamino-5-(3-fluoro-phenyl)-thiazole-4-carbonyl]-2-aza-bicyclo[2.2.1]hept-3-ylmethyl}-amide] | 65 nM | 421 nM | –
12 | COc1cccc(-c2sc(N(C)C)nc2C(=O)N2[C@@H]3CC[C@@H](C3)[C@H]2CNC(=O)c2cccc3ncsc23)c1 [Example 97, Benzothiazole-7-carboxylic acid {(1R,3S,45)-2-[2-dimethylamino-5-(3-methoxy-phenyl)-thiazole-4-carbonyl]-2-aza-bicyclo[2.2.1]hept-3-ylmethyl}-amide] | – | – | IC50 (human orexin-1 receptor; [3]): 12 nM; IC50 (human orexin-2 receptor; [3]): 14 nM
13 | CN(C)c1nc(C(=O)N2[C@@H]3CC[C@@H](C3)[C@H]2CNC(=O)c2nn(C)c3ccccc23)c(-c2ccccc2)s1 [Example 63, 1-Methyl-1H-indazole-3-carboxylic acid [(1R,3S,4S)-2-(2-dimethylamino-5-phenyl-thiazole-4-carbonyl)-2-aza-bicyclo[2.2.1]hept-3-ylmethyl]-amide] | 307 nM | 61 nM | –
14 | O=C(NC[C@H]1[C@@H]2CC[C@@H](C2)N1C(=O)c1nc(N2CCCC2)sc1-c1ccccc1F)c1cccc2ncsc12 [Example 110, Benzothiazole-7-carboxylic acid {(1S,3R,4R)-2-[5-(2-fluoro-phenyl)-2-pyrrolidin-1-yl-thiazole-4-carbonyl]-2-aza-bicyclo[2.2.1]hept-3-ylmethyl}-amide] | 23 nM | 30 nM | –
15 | Cc1nc2sccn2c1C(=O)NC[C@@H]1[C@H]2CC[C@H](C2)N1C(=O)c1nc(C2CC2)sc1-c1ccccc1 [Example 31, 6-Methyl-imidazo[2,1-b]thiazole-5-carboxylic acid [(1R,3S,4S)-2-(2-cyclopropyl-5-phenyl-thiazole-4-carbonyl)-2-aza-bicyclo[2.2.1]hept-3-ylmethyl]-amide] | 138 nM | 55 nM | –
16 | Cc1nc2sccn2c1C(=O)NC[C@@H]1[C@H]2CC[C@H](C2)N1C(=O)c1ncsc1-c1ccc(F)cc1 [Example 35, 6-Methyl-imidazo[2,1-b]thiazole-5-carboxylic acid {(1R,3S,4S)-2-[5-(4-fluoro-phenyl)-thiazole-4-carbonyl]-2-aza-bicyclo[2.2.1]hept-3-ylmethyl}-amide] | 278 nM | 808 nM | –
17 | Cc1nc(C(=O)N2[C@@H]3CC[C@@H](C3)[C@H]2CNC(=O)c2cccc3ncsc23)c(-c2cccc(OC(F)(F)F)c2)o1 [Example 104, Benzothiazole-7-carboxylic acid {(1R,3S,4S)-2-[2-methyl-5-(3-trifluoromethoxy-phenyl)-oxazole-4-carbonyl]-2-aza-bicyclo[2.2.1]hept-3-ylmethyl}-amide] | 305 nM | 37 nM | –
